In patent US9724347B2, “1-pyrazolyl-3-(4-((2-anilinopyrimidin-4-yl)oxy)napththalen-1-yl) ureas as P38 MAP knase inhibitors” (Respivert Ltd., priority 2011, dated 2017):

Tests used:
[1] = biological target: p38 MAPKα isoform (MAPK14) (Homo sapiens (Human), UniProt Q16539); assay: p38 MAPKα enzyme inhibition (FRET, Z-LYTE); assay type: biochemical
p38MAPKγ (MAPK12) = p38MAPKγ (MAPK12) (Homo sapiens (Human), UniProt P53778); assay: p38 MAPKγ enzyme inhibition (FRET, Z-LYTE); assay type: biochemical
Sequence of p38MAPKγ (MAPK12) (P53778 whole entry): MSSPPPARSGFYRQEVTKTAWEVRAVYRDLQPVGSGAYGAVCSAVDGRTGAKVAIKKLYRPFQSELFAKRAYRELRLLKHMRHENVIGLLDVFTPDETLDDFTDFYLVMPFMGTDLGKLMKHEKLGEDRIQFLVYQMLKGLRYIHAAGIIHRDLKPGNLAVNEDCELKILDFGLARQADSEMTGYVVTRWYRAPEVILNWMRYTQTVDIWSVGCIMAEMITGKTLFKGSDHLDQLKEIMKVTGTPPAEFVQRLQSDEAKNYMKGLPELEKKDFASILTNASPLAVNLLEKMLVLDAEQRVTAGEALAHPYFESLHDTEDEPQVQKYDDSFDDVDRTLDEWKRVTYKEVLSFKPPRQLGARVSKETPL
Outline: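 Z-LYTE FRET kinase format on donor/acceptor-labeled synthetic peptide; protease development 1 hr cleaves only non-phosphorylated peptide. Phosphorylation derived from coumarin/fluorescein emission ratio, low ratio indicating high phosphorylation.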

GSK 3α enzyme isoform = GSK 3α enzyme isoform (Homo sapiens (Human), UniProt P49840); assay: GSK 3α enzyme inhibition (FRET, Z-LYTE); assay type: biochemical; conditions: read-out: IC50 Values for Enzyme Inhibition GSK3α
Sequence of GSK 3α enzyme isoform (P49840 whole entry, canonical isoform): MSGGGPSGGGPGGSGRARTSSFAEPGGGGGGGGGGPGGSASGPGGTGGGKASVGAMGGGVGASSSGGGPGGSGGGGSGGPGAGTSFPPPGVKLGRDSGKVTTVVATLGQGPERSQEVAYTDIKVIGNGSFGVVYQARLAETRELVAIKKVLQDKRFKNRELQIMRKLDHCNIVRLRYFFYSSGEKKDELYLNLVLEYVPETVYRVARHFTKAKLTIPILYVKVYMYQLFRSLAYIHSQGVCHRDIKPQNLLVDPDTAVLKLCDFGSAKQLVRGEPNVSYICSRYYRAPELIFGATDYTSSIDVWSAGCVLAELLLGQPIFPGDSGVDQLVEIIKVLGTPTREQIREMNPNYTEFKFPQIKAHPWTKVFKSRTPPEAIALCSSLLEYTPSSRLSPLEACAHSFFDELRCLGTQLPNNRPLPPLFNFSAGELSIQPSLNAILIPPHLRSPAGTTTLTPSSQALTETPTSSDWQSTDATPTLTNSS
Outline: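 Human GSK3α (500 ng/mL stock) was preincubated 2 h at RT with compound (stocks 4, 0.4, 0.04 or 0.004 μg/mL), then given FRET peptide (8 μM stock) and ATP (40 μM stock) for 1 h. After 1 h protease development, the coumarin/fluorescein emission ratio gave phosphorylation level.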

[2] = test system: ICAM-1 expression in BEAS2B cells; assay: Poly I:C-induced ICAM-1 expression in BEAS2B cells; assay type: cell-based, human; conditions: Homo sapiens, BEAS-2B, read-out: PolyIC/ICAM1 IC50 (BEAS2B)
Outline: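 BEAS2B human bronchial epithelial cells pre-incubated 2 h with compound, then transfected with 1 μg/mL poly I:C plus Oligofectamine. After 18 h, surface ICAM-1 measured by cell-based ELISA (OD450–655), normalised to crystal violet cell count (OD595). Inhibition calculated against vehicle control.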

[3] = test system: HRV IL-8 release (BEAS2B); assay: Rhinovirus-induced IL-8 release in BEAS2B cells; assay type: cell-based, human; conditions: at 0.04 μg/mL
Method: Human rhinovirus RV16 was obtained from the American Type Culture Collection (Manassas, Va.). Viral stocks were generated by infecting Hela cells with HRV until 80% of the cells were cytopathic.
BEAS2B cells were infected with HRV at an MOI of 5 and incubated for 2 hr at 33° C. with gentle shaking for to promote absorption. The cells were then washed with PBS, fresh media added and the cells were incubated for a further 72 hr. The supernatant was collected for assay of IL-8 concentrations using a Duoset ELISA development kit (R&D systems, Minneapolis, Minn.).
The level of cell surface ICAM-1 expression was determined by cell-based ELISA. At 72 hr after infection, cells were fixed with 4% formaldehyde in PBS. After quenching endogenous peroxidase by adding 0.1% sodium azide and 1% hydrogen peroxide, wells were washed with wash-buffer (0.05% Tween in PBS: PBS-Tween). […] The ICAM-1 signal was detected by adding substrate and reading at 450 nm with a reference wavelength of 655 nm using a spectrophotometer. The wells were then washed with PBS-Tween and total cell numbers in each well were determined by reading absorbance at 595 nm after Crystal Violet staining and elution by 1% SDS solution. The measured OD450-655 readings were corrected for cell number by dividing with the OD595 reading in each well. […]

HRV16 = HRV16 induced CPE in MRC5 cells; assay type: cell-based, human rhinovirus; conditions: at 0.04 μg/mL
Method: The supernatants were aspirated, and then fresh media added followed by incubation for 4 days. Where appropriate, cells were pre-incubated with compound or DMSO for 2 hr, and the compounds and DMSO added again after washout of the virus.
The percentage inhibition for each well was calculated. The IC50 value was calculated from the concentration-response curve generated by the serial dilutions of the test compounds.

d-U937 cells = assay: Cell viability: MTT assay; assay type: cell-based, human; conditions: 1 μg/mL
Outline: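 Differentiated U937 cells exposed to compound at 1 or 10 μg/mL final, either 4 h in 5% FCS RPMI1640 or 24 h in 10% FCS RPMI1640. After medium replacement, MTT added 1 h, formazan dissolved in DMSO, A550 read. % viability loss vs 0.5% DMSO vehicle; apparent viability gain shown as negative %.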

Sequence of p38 MAPKα isoform (MAPK14) (Q16539 whole entry, canonical isoform): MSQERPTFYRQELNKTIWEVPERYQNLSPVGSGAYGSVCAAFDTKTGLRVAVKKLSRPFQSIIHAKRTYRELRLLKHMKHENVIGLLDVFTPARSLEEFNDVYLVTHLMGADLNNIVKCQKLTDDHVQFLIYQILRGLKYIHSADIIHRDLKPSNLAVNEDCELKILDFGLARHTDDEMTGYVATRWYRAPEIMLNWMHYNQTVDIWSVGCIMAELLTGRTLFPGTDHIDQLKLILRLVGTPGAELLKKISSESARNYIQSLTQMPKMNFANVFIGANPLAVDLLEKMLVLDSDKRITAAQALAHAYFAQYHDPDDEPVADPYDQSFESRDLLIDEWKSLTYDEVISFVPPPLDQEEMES

Work on `Cc1ccc(-n2nc(C(C)(C)C)cc2NC(=O)Nc2ccc(Oc3ccnc(Nc4ccccc4Cl)n3)c3ccccc23)cc1` [Example 6, 1-(3-(tert-butyl)-1-(p-tolyl)-1H-pyrazol-5-yl)-3-(4-((2-((2-chlorophenyl)amino)pyrimidin-4-yl)oxy)naphthalen-1-yl)urea] yielded an IC50 [1] of 161 nM, an IC50 (p38MAPKγ (MAPK12)) of over 16200 nM and an IC50 (GSK 3α enzyme isoform) of over 16200 nM. For the same compound, the IC50 [2] was 56 nM, the “HRV IL-8 (BEAS2B) % inhibition” value [3] was 77% and the “HRV CPE (MRC5) % inhibition” value (HRV16) was 46%. The “MTT Assay Cell viability at time point in d-U937 Cells” value (d-U937 cells; 4 h) was “−ve (−ve and +ve indicate the value is below and above respectively, the no significant effect threshold defined as 30% inhibition at 1 μg/mL at the time point indicated)” and the “MTT Assay Cell viability at time point in d-U937 Cells” value (d-U937 cells; 24 h) was “−ve (−ve and +ve indicate the value is below and above respectively, the no significant effect threshold defined as 30% inhibition at 1 μg/mL at the time point indicated)”.
